Tests used:
Sarcoma-180 = assay: Anti-tumour activity against Sarcoma-180; format: in vivo, mouse (ICR-JCL); conditions: Mus musculus, Sarcoma-180, po, 600 h, 10 times every other day, tumour weight on 25th day, read-out: Antitumour activity, inhibiting rate (I.R.)
Description: Sarcoma-180 was transplanted into the axillary part of ICR-JCL mice at a rate of 1×10^6 cells/animal, and after 24 hours of transplantation, each of the present compounds as a solution or dispersion in sterilized physiological saline solution was orally administered to each of the transplanted mice 10 times every other day at a dose of 500 mg/kg/time. On 25th day of the transplantation, tumour node(s) were extirpated from all the mice to determine the weight of the tumour nodes.
Antitumour activity (activity of inhibiting the proliferation of the transplanted sarcoma) of each of the present compounds was derived by the following formula and shown in Table 6:
Antitumour activity (Inhibiting rate, I.R.)=(1-T/C)×100(%).
T represents the total weight of tumour nodes of the group of mice transplanted and administered with the present compound, and
C represents the total weight of tumour nodes of the group of mice transplanted, however, not administered with any agents.

carrageenin edema = assay: Anti-Carrageenin edema activity; format: in vivo, rat; conditions: Rattus norvegicus, po, 1000 mg/kg once, read-out: I.R. against carrageenin edema
Description: After orally administering each of the present compounds forcibly to each group of rats, composed of 10 animals, as a solution or dispersion in distilled water at a dose of 1000 mg/kg once, 0.1 ml of an aqueous dispersion of 1% carrageenin in aqueous physiological saline solution was injected into the foot pad of the right hind leg of the administered animal following Van Arman et al. (1963). Thereafter, the thickness of the foot pad was measured at a time interval to find the rate of inhibiting of the swelling of the foot pad according to the following formula:
(§1) Rate of inhibition (I.R.) (%)=(1-T/C)×100
T means the average volume of the foot pad of the animals administered with one of the present compounds and carrageenin, and
C means that of the animal not administered with the present compound, however, administered with carrageenin.

blood pressure = assay: Anti-hypertension activity (reduction of blood pressure); format: in vivo, rat (spontaneous hypertension); conditions: oral, 300 mg/kg
Description: Rats of spontaneous hypertension were orally administered with each of the present compounds as a solution or dispersion in distilled water at a dose rate of 300 mg/kg body weight. After 3 and 6 hours of the administration, the blood pressure of each rat was determined, and the difference between the above-determined value and the value just before the administeration was used as the index of the activity of reducing the blood pressure of the compound.

cotton pellet granuloma = assay: Anti-granuloma activity (cotton pellet); format: in vivo, rat; conditions: Rattus norvegicus, po, 192 h, 7 days, read-out: I.R. against cotton pellet edema
Description: Following the method of Winter et al. (1963), each two cotton wool pellets, each weighing 30±1 mg, were implanted into the back of each rats of groups of rats, each group consisting of 6 animals, at the positions of mutually symmetrical concerning the median line of the rat. To these groups of the thus operated rats, the present compounds were respectively administered orally and forcibly as a solution or dispersion in distilled water for 7 continuous days, once a day at a dose of 1000 mg/kg/day. On 8th day of the implantation, the granuloma was extirpated and the dry weight of the granuloma was measured, the rate of inhibiting the proliferation of granuloma being obtained as in (5-1) being shown in Table 8.

in vivo = conditions: mouse, in vivo, po, mice, 7 days observation, read-out: LD50, acute oral toxicity
total cholesterol = assay: Anti-hyperlipemia activity, total cholesterol in blood; format: in vivo, rabbit (Japanese white male); conditions: oral, 300 mg/kg once; for Reduction of cholesterol level after 3 hrs.: negative = raising
Description: (§2) Japanese white male rabbits were fed for 3 months with a solid diet containing 1% of cholesterol taken ad lib, and after confirming the raised lipid content of the serum of the rabbits, they were utilized as model animals suffering from experimental arteriosclerosis. Each of the present compounds was administered orally as a solution or dispersion in distilled water to the experimental animals of each group at a dose rate of 300 mg/kg once, and blood samples were taken at a predetermined time interval from the auricular vein of each animal. The content of cholesterol in the blood specimen was traced as the time passed by, with an enzymatic method, and the content of beta-lipoprotein in the same blood specimen was traced with a colorimetry. Each value in Table 7 is the difference between the level just before administration and the level after 3 or 6 hours of the administration.

beta-lipoprotein = assay: Anti-hyperlipemia activity, beta-lipoprotein in blood; format: in vivo, rabbit (Japanese white male); conditions: oral, 300 mg/kg once
Description: as §2

[1] = system: pyrexia (Saccharomyces cerevisiae); assay: Anti-pyrexia activity (yeast-induced); format: in vivo; conditions: Rattus norvegicus, oral, read-out: Rate of inhibiting pyrexia (I.R.)
Description: Following the method of Winter et al. (1961), an aqueous dispersion of 20% by weight of Saccharomyces cerevisiae was subcutaneously injected into groups of rats, each group consisting of 6 animals, and after 10-hour fasting, 1000 mg/kg of each of the present compounds was orally administered to the rat as a solution of dispersion in distilled water, and then the rectal temperature of the rat was measured at a predetermined interval of time to find the lowest temperature.
The anti-pyrexia activity of each compound was obtained from the following formula: […]
Anti-pyrexia activity represented by the rate of inhibition (I.R.)
C2 represents the average rectal temperature of negative control (non-treatment), not injected with the yeast and not administered with the present compound,
C1 represents the average temperature of positive control, injected with the yeast and not administered with the compound and T represents the temperature of tested animals, injected with the yeast and administered with the present compound.

level of blood sugar = assay: Anti-hyperglycemia activity (reduction of blood sugar level); format: in vivo, rat (Wistar, streptozotocin); conditions: oral, 300 mg/kg
Description: A group of Wistar rats to which at first streptozotocin was interperitoneally administered at a rate of 60 mg/kg and of which the positivity of glycosuria was confirmed after a week of the administration and to which regular insulin was further administered and of which the reduction of levels of glucose in urine and blood was once confirmed, however, of which hyperglycemia and hyperglycosuria were again confirmed after a few days was chosen and used as model animals of glycosuria in the following test. After orally administering each of the present compounds to the model animals at a dose of 300 mg/kg body weight, as a solution or dispersion in distilled water, the blood was collected two times, respectively after 3 and 6 hours of the administration.

acetic acid writhing = assay: Analgetic activity against chemical stimulation of acetic acid (writhing); format: in vivo, mouse (ICR female); conditions: Mus musculus, po, 30 min before 0.6% acetic acid, read-out: I.R. of writhing
Text: as §1
T represents the average number of writhing of the group of mice administered with the present compound and injected with acetic acid, and C represents the average number of writhing of the group of mice only injected with acetic acid (control).

exudation = assay: Anti-exudation activity (air pouch, croton oil); format: in vivo, rat; conditions: Rattus norvegicus, po, 144 h, 5 days, read-out: I.R. against exudation
Description: Following the method of Baris et al. (1965), air was injected subcutaneously into the back of groups of rats, each group consisting of 6 animals to make an air pouch, and 0.5 ml of sesame oil containing 1% by weight of croton oil was injected into the air pouch. Each of the present compounds was orally administered forcibly to each of the groups of rats as a solution or dispersion in distilled water at a dose rate of 1000 mg/kg/day for continued five days. The amount of liquid exudated into the air pouch was measured on 6th day of the operation. The rate of inhibiting the exudation of the liquid was obtained by the same manner as in (5-2) and the results are shown also in Table 8.

[2] = system: pseudo-escaping reaction to tail pressure; assay: Analgetic activity against mechanical stimulation of pressure; format: in vivo, mouse (ICR female); conditions: oral, 1000 mg/kg

## O=C(Oc1ccccc1)c1ccc(NC2O[C@H](CO)[C@@H](O[C@H]3O[C@H](CO)[C@@H](O[C@H]4O[C@H](CO)[C@@H](O)[C@H](O)[C@H]4O)[C@H](O)[C@H]3O)[C@H](O)[C@H]2O)cc1 (some centres unmarked) [Compound 10, phenyl p-aminobenzoate-N-maltotrioside]
Sarcoma-180
  inhibition in vivo at 500 mg/kg: 39%
Carrageenin edema
  inhibition in vivo at 1000 mg/kg: 6.6%
Blood pressure
  Reduced level of blood pressure after 3 hrs.: 18 mm Hg
  Reduced level of blood pressure after 6 hrs.: 18 mm Hg
Cotton pellet granuloma
  inhibition in vivo at 1000 mg/kg/day: 19.6%
In vivo
  LD50 at 168 h: 12400 mg/kg
Total cholesterol
  Reduction of cholesterol level after 3 hrs.: -5 mg/dL
  Reduction of cholesterol level after 6 hrs.: 33 mg/dL
beta-lipoprotein
  Reduction of beta-lipoprotein level after 3 hrs.: 106 mg/dL
  Reduction of beta-lipoprotein level after 6 hrs.: 111 mg/dL
[1]
  inhibition in vivo at 1000 mg/kg: 41%
Level of blood sugar
  Reduced level of blood sugar after 3 hrs.: 99 mg/dL
  Reduced level of blood sugar after 6 hrs.: 106 mg/dL
Acetic acid writhing
  inhibition in vivo at 1000 mg/kg: 30%
exudation
  inhibition in vivo at 1000 mg/kg/day: 7.5%
[2]
  Pseudo-escapting reaction pressure: 86 mmHg
  Pseudo-escapting reaction time: 36 s

## C[C@@H]1OC(Nc2cccc(C(=O)OCc3ccccc3)c2)[C@@H](O)[C@H](O)[C@@H]1O (stereo partly drawn) [Compound 11, benzyl m-aminobenzoate-N-L-fucoside]
Sarcoma-180
  inhibition in vivo at 500 mg/kg: 40%
Carrageenin edema
  inhibition in vivo at 1000 mg/kg: 22.8%
Blood pressure
  Reduced level of blood pressure after 3 hrs.: 21 mm Hg
  Reduced level of blood pressure after 6 hrs.: 25 mm Hg
Cotton pellet granuloma
  inhibition in vivo at 1000 mg/kg/day: 4.4%
In vivo
  LD50 at 168 h: 9700 mg/kg
Total cholesterol
  Reduction of cholesterol level after 3 hrs.: -1 mg/dL
  Reduction of cholesterol level after 6 hrs.: 50 mg/dL
beta-lipoprotein
  Reduction of beta-lipoprotein level after 3 hrs.: 98 mg/dL
  Reduction of beta-lipoprotein level after 6 hrs.: 109 mg/dL
[1]
  inhibition in vivo at 1000 mg/kg: 29%
Level of blood sugar
  Reduced level of blood sugar after 3 hrs.: 75 mg/dL
  Reduced level of blood sugar after 6 hrs.: 88 mg/dL
Acetic acid writhing
  inhibition in vivo at 1000 mg/kg: 17%
exudation
  inhibition in vivo at 1000 mg/kg/day: 11%
[2]
  Pseudo-escapting reaction pressure: 74 mmHg
  Pseudo-escapting reaction time: 35 s

## O=C(OCc1ccccc1)c1cccc(NC2O[C@H](CO)[C@@H](O[C@@H]3O[C@H](CO)[C@H](O)[C@H](O)[C@H]3O)[C@H](O)[C@H]2O)c1 (some centres unmarked) [Compound 12, benzyl m-aminobenzoate-N-lactoside]
Sarcoma-180
  inhibition in vivo at 500 mg/kg: 37%
Carrageenin edema
  inhibition in vivo at 1000 mg/kg: 18.7%
Blood pressure
  Reduced level of blood pressure after 3 hrs.: 16 mm Hg
  Reduced level of blood pressure after 6 hrs.: 18 mm Hg
Cotton pellet granuloma
  inhibition in vivo at 1000 mg/kg/day: 8.4%
In vivo
  LD50 at 168 h: 11500 mg/kg
Total cholesterol
  Reduction of cholesterol level after 3 hrs.: 7 mg/dL
  Reduction of cholesterol level after 6 hrs.: 48 mg/dL
beta-lipoprotein
  Reduction of beta-lipoprotein level after 3 hrs.: 121 mg/dL
  Reduction of beta-lipoprotein level after 6 hrs.: 124 mg/dL
[1]
  inhibition in vivo at 1000 mg/kg: 17%
Level of blood sugar
  Reduced level of blood sugar after 3 hrs.: 52 mg/dL
  Reduced level of blood sugar after 6 hrs.: 95 mg/dL
Acetic acid writhing
  inhibition in vivo at 1000 mg/kg: 33%
exudation
  inhibition in vivo at 1000 mg/kg/day: 10.7%
[2]
  Pseudo-escapting reaction pressure: 90 mmHg
  Pseudo-escapting reaction time: 42 s

## O=C(OCc1ccccc1)c1ccc(NC2C[C@H](O)[C@H](O)CO2)cc1 (stereo partly drawn) [Compound 13, benzyl p-aminobenzoate-N-D-deoxyriboside]
Sarcoma-180
  inhibition in vivo at 500 mg/kg: 38%
Carrageenin edema
  inhibition in vivo at 1000 mg/kg: 7%
Blood pressure
  Reduced level of blood pressure after 3 hrs.: 20 mm Hg
  Reduced level of blood pressure after 6 hrs.: 21 mm Hg
Cotton pellet granuloma
  inhibition in vivo at 1000 mg/kg/day: 4.2%
In vivo
  LD50 at 168 h: 9200 mg/kg
Total cholesterol
  Reduction of cholesterol level after 3 hrs.: 4 mg/dL
  Reduction of cholesterol level after 6 hrs.: 35 mg/dL
beta-lipoprotein
  Reduction of beta-lipoprotein level after 3 hrs.: 135 mg/dL
  Reduction of beta-lipoprotein level after 6 hrs.: 144 mg/dL
[1]
  inhibition in vivo at 1000 mg/kg: 39%
Level of blood sugar
  Reduced level of blood sugar after 3 hrs.: 108 mg/dL
  Reduced level of blood sugar after 6 hrs.: 113 mg/dL
Acetic acid writhing
  inhibition in vivo at 1000 mg/kg: 24%
exudation
  inhibition in vivo at 1000 mg/kg/day: 23.5%
[2]
  Pseudo-escapting reaction pressure: 82 mmHg
  Pseudo-escapting reaction time: 40 s

From patent publication US4372948A, “Derivative of saccharide and physiologically active agent containing the same” (Kureha Kagaku Kogyo Kabushiki Kaisha, priority 1980, dated 1983)
